Experimental data reported in patent US12338203B2 (TAISHO PHARMACEUTICAL CO., LTD., priority 2019, dated 2025).

Biological target: T1, human LPAR1 (Homo sapiens, UniProt Q92633)
T1 construct: expressed in transfected cells
Assay: Test Example 1: antagonism against response of LPA-induced increase in intracellular Ca2+ concentration in RH7777 cells stably expressing human LPAR1
Type: cell-based
Conditions: not given
How it was run: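 RH7777 cells stably transfected with human LPAR1 were preincubated with test compound 30 min at 37 °C in HBSS/20 mM HEPES/probenecid/0.05% BSA buffer, pH 7.4, then LPA-stimulated.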

T1 sequence (Q92633 whole entry): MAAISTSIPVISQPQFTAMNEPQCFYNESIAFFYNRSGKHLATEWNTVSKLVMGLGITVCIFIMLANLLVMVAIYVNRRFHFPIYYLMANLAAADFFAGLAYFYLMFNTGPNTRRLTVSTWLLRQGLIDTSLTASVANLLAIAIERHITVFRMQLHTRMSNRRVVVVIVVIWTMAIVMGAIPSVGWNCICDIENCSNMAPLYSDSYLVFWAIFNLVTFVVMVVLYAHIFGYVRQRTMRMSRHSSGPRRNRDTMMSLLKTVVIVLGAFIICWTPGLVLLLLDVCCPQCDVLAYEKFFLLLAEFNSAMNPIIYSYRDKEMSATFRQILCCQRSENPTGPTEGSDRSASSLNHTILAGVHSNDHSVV

SMILES	IC50 [nM]
CCCCC(NC(=O)N(CCCCc1ccccc1)Cc1cc(OC)c(C)c(OC)c1)C(=O)O (stereo not shown) [Example 1-3]	1800

Same assay, conditions: RH7777 cells stably expressing human LPAR1; Fluo-4 fluorescence, FDSS6000; read-out: IC50 value (concentration producing 50% antagonism against response of LPA-induced increase in intracellular Ca2+ concentration) (converted)

IC50 [nM]	SMILES
43.5	CCOc1cc([C@@H](C)N(CCC(F)(F)Cc2ccccc2)C(=O)N[C@]2(C(=O)O)C[C@@H](OCC)C2)c(C)c(OCC)c1C [Example 5-80]
1.1	CCOc1cc(C(C)N(CCOCc2ccccc2)C(=O)NC2(C(=O)O)CC(OCC)C2)cc(OCC)c1C1CC1 (stereo not shown) [Example 5-211]
4.94	CCOc1c(C(C)=O)ccc([C@@H](C)N(CCCC(F)(F)c2ccccc2)C(=O)NC2(C(=O)O)CC2)c1C [Example 4-49]
7.62	CCOc1c(C(C)=O)ccc([C@@H](C)N(CCO[C@@H](C)c2ccccc2)C(=O)N[C@]2(C(=O)O)C[C@H](OCC)C2)c1C [Example 4-141]
164	CC(c1ccc(F)cc1)N(CCCCc1ccccc1)C(=O)NC1(C(=O)O)CC(F)(F)C1 (stereo not shown) [Example 5-6]
60.8	CCOc1cc([C@@H](C)N(CCCCc2ccc(OC)cc2)C(=O)NC2(C(=O)O)CC(F)(F)C2)cc(OCC)c1C [Example 4-19]
2.43	COc1cc(C(C)N(CCOCc2ccccc2)C(=O)NC2(C(=O)O)CC(F)(F)C2)c(C)c(OC)c1C(C)=O (stereo not shown) [Example 5-145]
4.19	CCNc1cc(C(C)N(CCCCc2ccccc2)C(=O)NC2(C(=O)O)CC(F)(F)C2)cc(OCC)c1C#N (stereo not shown) [Example 5-114]
1.33	CCOc1cc(C(C)N(CCO[C@@H](C)c2ccccc2)C(=O)NC2(C(=O)O)CC(OC)C2)c(C)c(OCC)c1C1CC1 (stereo partly shown) [Example 5-203]
59.8	CCOc1cc(C(C)N(CCCc2cccc(C)c2)C(=O)NC2(C(=O)O)CC(F)(F)C2)cc(OCC)c1C (stereo not shown) [Example 4-13]
47.4	CCOc1cc([C@@H](C)N(CCO[C@@H](C)c2ccccc2)C(=O)NC2(C(=O)O)CCOCC2)cc(OCC)c1C(C)O (single isomer, unassigned) [Example 4-143]
195	COc1cc(OC)nc(C(C)N(CCCCc2ccccc2)C(=O)NC2(C(=O)O)CC(F)(F)C2)n1 (stereo not shown) [Example 5-87]
1.31	CCOc1cc([C@@H](C)N(CCOCc2ccccc2)C(=O)NC2(C(=O)O)CC(F)(F)C2)cc(OCC)c1C(C)O (stereo partly shown) [Example 4-104]
2.26	CCOc1cc([C@@H](C)N(CCCc2ccccc2)C(=O)NC2(C(=O)O)CC(F)(F)C2)cc(OCC)c1C(C)=O [Example 4-35, 1-({[(1R)-1-(4-Acetyl-3,5-Diethoxyphenyl)Ethyl](3-Phenylpropyl) Carbamoyl}Amino)-3,3-Difluorocyclobutane-1-Carboxylic Acid]
30	COc1cc(C(C)N(CCOCc2ccccc2)C(=O)NC2(C(=O)O)CCOCC2)c(Cl)c(OC)c1C(C)=O (stereo not shown) [Example 5-174]
8.86	CCCOc1cc(OCC)cc(C(C)N(CCCCc2ccccc2)C(=O)NC2(C(=O)O)CC(F)(F)C2)c1 (stereo not shown) [Example 5-17]

IC50 [nM]	SMILES
37.4	CCOc1cc([C@@H](C)N(CCC(F)(F)Cc2ccccc2)C(=O)NC2(C(=O)O)CCOCC2)cc(OCC)c1C(C)=O [Example 4-95]
13000	CCOc1cc(C(C)N(CCO[C@@H](C)c2ccccc2)C(=O)NC2(C(=O)OC(C)(C)C)CC(F)(F)C2)cc(OCC)c1C(C)=O (stereo partly shown) [Example 6-16]
7630	CCOc1cc([C@@H](C)N(CCCCC2CCNCC2)C(=O)NC2(C(=O)O)CC(F)(F)C2)cc(OCC)c1C [Example 4-34, 1-({[(1R)-1-(3,5-Diethoxy-4-Methylphenyl)Ethyl][4-(Piperidin-4-Yl)Butyl]Carbamoyl}Amino)-3,3-Difluorocyclobutane-1-Carboxylic Acid]
0.851	CCOc1cc(C(C)N(CCOCc2ccccc2)C(=O)NC2(C(=O)O)CCOCC2)c(C)c(OCC)c1C1CC1 (stereo not shown) [Example 5-227]
1.27	CCOc1cc([C@@H](C)N(CCCC(F)(F)c2ccccc2)C(=O)NC2(C(=O)O)CC(OC)C2)cc(OCC)c1C1CC1 (stereo partly shown) [Example 4-67]
1.25	CCOc1cc([C@@H](C)N(CCOCc2ccccc2)C(=O)NC2(C(=O)O)CCC2)cc(OCC)c1C(C)=O [Example 4-101]
23.6	CCOc1cc([C@@H](C)N(CCC(F)(F)Cc2ccccc2)C(=O)NC2(C(=O)O)CC2)cc(OCC)c1C1CC1 [Example 4-80]
25.2	CCOc1cc([C@@H](C)N(CC2CC(c3ccccc3)C2)C(=O)NC2(C(=O)O)CC(F)(F)C2)cc(OCC)c1C (stereo partly shown) [Example 4-42]
128	CC(=O)c1ccc(C(C)N(CCCCc2ccccc2)C(=O)NC2(C(=O)O)CC(F)(F)C2)cc1 (stereo not shown) [Example 5-4]
26.4	CCOc1cc(C(C)N(CCCCc2cc(F)cc(F)c2)C(=O)NC2(C(=O)O)CC(F)(F)C2)cc(OCC)c1C (stereo not shown) [Example 4-10]
43.1	COc1cc(C(C)N(CCCCc2ccccc2)C(=O)NC2(C(=O)O)CC(F)(F)C2)nc(OC)n1 (stereo not shown) [Example 5-88]
7.9	COc1cc(C(C)N(CCOCc2ccccc2)C(=O)NC2(C(=O)O)CCC2)cc(OC)c1C(C)=O (stereo not shown) [Example 5-130]
38.4	COc1cc(C(C)N(CCOCc2ccccc2)C(=O)NC2(C(=O)O)CC2)c(Cl)c(OC)c1C1CC1 (stereo not shown) [Example 5-129]
0.847	CCOc1cc(C(C)N(CCOCc2ccccc2)C(=O)NC2(C(=O)O)CC(OCC)C2)c(Cl)c(OCC)c1C1CC1 (stereo not shown) [Example 5-213]
0.817	CCOc1cc(C(C)N(CCOCc2ccccc2)C(=O)NC2(C(=O)O)CCC2)c(Cl)c(OCC)c1C1CC1 (stereo not shown) [Example 5-190]

The next lines start with the compound.

SMILES	IC50 [nM]
CCOc1cc([C@@H](C)N(CCCCc2ccccc2)C(=O)NC2(C(=O)O)CC(F)(F)C2)cc(OCC)c1C(C)O (single isomer, unassigned) [Example 1-36]	1.04
CCOc1cc([C@@H](C)N(CCCCc2ccccc2)C(=O)NC2(C(=O)O)CC(F)(F)C2)cc(OCC)c1C(C)=O [Example 1-30, 1-({[(1R)-1-(4-Acetyl-3,5-Diethoxyphenyl)Ethyl](4-Phenylbutyl) Carbamoyl}Amino)-3,3-Difluorocyclobutane-1-Carboxylic Acid]	1.75
CCOc1cc(C(C)N(CCCCc2ccccc2)C(=O)NC2(C(=O)O)CC(F)(F)C2)cc(F)c1C(C)=O (stereo not shown) [Example 1-71]	3.48
CC(c1cc(Cl)cc(Cl)c1F)N(CCCCc1ccccc1)C(=O)NC1(C(=O)O)CC(F)(F)C1 (stereo not shown) [Example 1-80]	13.1
CCOc1cc([C@@H](C)N(CCCCc2ccccc2)C(=O)NC2(C(=O)O)CC(OC)C2)cc(OCC)c1C (stereo partly shown) [Example 1-91]	1.99
CCOc1c(C(C)=O)ccc([C@@H](C)N(CCCCc2ccccc2)C(=O)NC2(C(=O)O)CC(F)(F)C2)c1C [Example 1-75]	1.24
CCOc1cc([C@@H](C)N(CCCCc2ccccc2)C(=O)NC2CCC(C(=O)O)C2)cc(OCC)c1C(C)=O (stereo partly shown) [Example 1-140]	65.9
CCOc1cc(C(C)N(CCCCc2ccccc2)C(=O)NC2(C(=O)O)CC(F)(F)C2)c(C)cc1C(C)=O (stereo not shown) [Example 1-81]	0.944
CCOc1cc([C@@H](C)N(CCCCc2ccccc2)C(=O)NC2(C(=O)O)CCC2)cc(OCC)c1C(C)O (single isomer, unassigned) [Example 1-21]	3.38
CCOc1c(C(C)=O)ccc([C@@H](C)N(CCCCc2ccccc2)C(=O)NC2CCC2C(=O)O)c1C (stereo partly shown) [Example 1-127]	33.7
CCOc1cc([C@@H](C)N(CCCCc2ccccc2)C(=O)NC2(C(=O)O)CCOCC2)cc(OCC)c1C [Example 1-154]	11.3
COc1cc([C@@H](C)N(CCCCc2ccccc2)C(=O)NC2(C(=O)O)CC(F)(F)C2)cc(OC)c1C [Example 1-67]	1.6
CCOc1cc(C(C)N(CCCCc2ccccc2)C(=O)NC2(C(=O)O)CC(F)(F)C2)cc(OCC)c1S(C)(=O)=O (stereo not shown) [Example 1-57]	26.6
CCOc1cc([C@@H](C)N(CCCCc2ccccc2)C(=O)NC2CCC[C@H]2C(=O)O)cc(OCC)c1C(C)=O (stereo partly shown) [Example 1-133]	1.21
CCOc1cc(C(C)N(CCCCc2ccccc2)C(=O)NC2(C(=O)O)CC(F)(F)C2)cc(OCC)c1C(N)=O (stereo not shown) [Example 1-40, 1-({[1-(4-Carbamoyl-3,5-Diethoxyphenyl)Ethyl](4-Phenylbutyl) Carbamoyl}Amino)-3,3-Difluorocyclobutane-1-Carboxylic Acid]	103
CCOc1cc([C@@H](C)N(CCCCc2ccccc2)C(=O)NC2(C(=O)O)COC2)cc(OCC)c1C(C)=O [Example 1-149, 3-({[(1R)-1-(4-Acetyl-3,5-Diethoxyphenyl)Ethyl](4-Phenylbutyl) Carbamoyl}Amino) Oxetane-3-Carboxylic Acid]	2.24
COc1cc(CN(CCCCc2ccccc2)C(=O)NC(CC(F)(F)F)C(=O)O)cc(OC)c1C (stereo not shown) [Example 1-6]	1580
